Tests used:
Full-length human PRMT8 = target: T1, Full-length human PRMT8 (Homo sapiens, UniProt Q9NR22); experiment: PRMT8 biochemical assay (3H-SAM Flashplate, peptide substrate)
T1 construct: Full-length human PRMT8 (NM_019854.4) isoform 1 transcript clone; made in house
Method in brief: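 Methylation of a biotinylated H4 (31-45) peptide by ³H-SAM was counted after streptavidin Flashplate capture. Purified recombinant PRMT8 and compound were preincubated 30 min at room temperature in Bicine buffer pH 7.6 with TCEP, BSG and Tween 20, and reactions were stopped with unlabeled SAM (final 400 μM). Inhibition versus DMSO and SAH controls was fit by 3- or 4-parameter curves.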

Full-length human PRMT6 = target: T2, Full-length human PRMT6 (Homo sapiens, UniProt Q96LA8); experiment: PRMT6 biochemical assay (3H-SAM Flashplate, peptide substrate)
T2 construct: Flag-PRMT6-His was eluted with 200 ug/ml FLAG peptide in the same buffer; made in house; host or cells: HEK 293F cells (BacMam virus, pFastBacMam)
T2 sequence (Q96LA8 with tags, fused parts or gaps): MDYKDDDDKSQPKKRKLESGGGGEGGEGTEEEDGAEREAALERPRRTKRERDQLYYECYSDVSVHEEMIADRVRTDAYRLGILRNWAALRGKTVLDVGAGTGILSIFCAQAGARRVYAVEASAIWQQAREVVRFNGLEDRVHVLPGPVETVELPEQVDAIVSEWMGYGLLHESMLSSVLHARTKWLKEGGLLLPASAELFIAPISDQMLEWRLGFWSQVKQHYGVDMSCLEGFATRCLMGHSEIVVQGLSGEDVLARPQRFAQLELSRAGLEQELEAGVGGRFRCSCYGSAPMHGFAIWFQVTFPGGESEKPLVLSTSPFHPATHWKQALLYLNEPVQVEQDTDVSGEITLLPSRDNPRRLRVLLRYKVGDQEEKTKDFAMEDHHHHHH
Method in brief: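 Read-out is 3H-methylated histone H4 (36-50) peptide bound to streptavidin Flashplates after a cold-SAM stop. Baculovirus-expressed Flag-PRMT6-His met compound for 30 min at room temperature before SAM and peptide; Bicine pH 7.6 buffer. IC50 fitted to % inhibition normalized to SAH (min) and DMSO (max).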

T1 sequence (Q9NR22 whole entry, canonical isoform): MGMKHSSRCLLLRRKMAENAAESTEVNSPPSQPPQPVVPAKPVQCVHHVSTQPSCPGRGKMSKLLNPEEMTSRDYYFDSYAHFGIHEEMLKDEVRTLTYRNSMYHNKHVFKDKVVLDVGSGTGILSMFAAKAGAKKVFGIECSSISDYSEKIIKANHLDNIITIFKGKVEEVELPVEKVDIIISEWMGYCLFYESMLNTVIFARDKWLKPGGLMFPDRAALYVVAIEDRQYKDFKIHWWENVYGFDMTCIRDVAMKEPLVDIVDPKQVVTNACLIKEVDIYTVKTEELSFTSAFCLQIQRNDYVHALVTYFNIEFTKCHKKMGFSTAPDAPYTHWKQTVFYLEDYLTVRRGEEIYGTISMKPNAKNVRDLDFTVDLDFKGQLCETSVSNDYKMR

Row | Compound | IC50 (Full-length human PRMT8) [nM] | IC50 (Full-length human PRMT6) [nM]
1 | COCCn1cc(CN(C)CCN(C)C)c(-c2ccc(F)cc2)n1 [Compound 61] | > 10000 | 
2 | CC(C)Oc1ccc(-c2n[nH]cc2CN(C)CCN)cc1Cl [Compound 168] |  | < 100
3 | CNCCN(C)Cc1c[nH]nc1-c1ccc(OC)c(F)c1 [Compound 52] | 101 to 1000 | < 100
4 | CN(CCN)Cc1c[nH]nc1-c1ccc(F)cc1Cl [Compound 89] | 1010 to 3000 | < 100
5 | CNCCN(C)Cc1c[nH]nc1-c1ccccc1NS(C)(=O)=O [Compound 41] | > 10000 | 3010 to 10000
6 | CN(CCN)Cc1cnn(CCO)c1-c1ccc(F)cc1 [Compound 65] | 3010 to 10000 | 101 to 1000
7 | CNCCN(C)Cc1cn(CCC(O)CO)nc1-c1ccc(F)cc1 (stereo not drawn) [Compound 59] | 3010 to 10000 | 101 to 1000
8 | CCN(CCN)Cc1c[nH]nc1-c1ccc(F)cc1 [Compound 62] | 101 to 1000 | < 100
9 | CNCCN(C)Cc1c[nH]nc1-c1cccc(NC(C)=O)c1 [Compound 42] | 1010 to 3000 | < 100
10 | CN(CCN)Cc1c[nH]nc1-c1ccc(C(F)(F)F)cc1C(F)(F)F [Compound 85] | 3010 to 10000 | 101 to 1000
11 | CNCCN(C)Cc1c[nH]nc1-c1cccc2ccccc12 [Compound 57] | 101 to 1000 | < 100
12 | CN(CCN)Cc1c[nH]nc1-c1cccc(F)c1 [Compound 71] | 101 to 1000 | < 100
13 | CNCCN(C)Cc1c[nH]nc1-c1ccc2ccccc2c1 [Compound 58] | 101 to 1000 | < 100
14 | CN(CCN)Cc1cn(CCO)nc1-c1ccc(F)cc1 [Compound 66] | 3010 to 10000 | 1010 to 3000
15 | CN(CCN)Cc1cnn(CC2COC2)c1-c1ccc(F)cc1 [Compound 80] | > 10000 | 
16 | COCCn1ncc(CN(C)CCN(C)C)c1-c1ccc(F)cc1 [Compound 64] | > 10000 | 1010 to 3000
17 | CNCCN(C)Cc1c[nH]nc1-c1ccccc1Oc1ccccc1 [Compound 36] | > 10000 | 1010 to 3000
18 | CN(CCN)Cc1c[nH]nc1-c1ccc(Cl)cc1Cl [Compound 86] | 101 to 1000 | < 100
19 | CN(CCN)Cc1cnn(C)c1-c1ccc(F)cc1 [Compound 4] | 1010 to 3000 | < 100
20 | CN(CCN)Cc1cn(CC(O)CO)nc1-c1ccc(F)cc1 (stereo not drawn) [Compound 76] | > 10000 | 1010 to 3000
21 | CN(CCN)Cc1c[nH]nc1-c1ccccc1 [Compound 73] | 101 to 1000 | < 100
22 | CN(CCN)Cc1nn(C)cc1-c1ccc(C#N)cc1 [Compound 83] | 101 to 1000 | < 100

Row | Compound | IC50 (Full-length human PRMT8) [nM] | IC50 (Full-length human PRMT6) [nM]
23 | NCCN(Cc1c[nH]nc1-c1ccc(F)cc1)C1CC1 [Compound 78] | 1010 to 3000 | < 100
24 | CNCCN(C)Cc1c[nH]nc1-c1cc(Cl)ccc1OC [Compound 53] | > 10000 | 101 to 1000
25 | CNCCN(C)Cc1c[nH]nc1-c1ccc(F)cc1F [Compound 49] | 101 to 1000 | < 100
26 | CN(CCN)Cc1c[nH]nc1-c1ccc(C#N)cc1 [Compound 68] | 101 to 1000 | < 100
27 | Cc1ccc(Cl)c(-c2n[nH]cc2CN(C)CCN)c1 [Compound 91] | 3010 to 10000 | 101 to 1000
28 | CNCCN(C)Cc1c[nH]nc1-c1cccc(OC)c1OC [Compound 54] | 3010 to 10000 | 101 to 1000
29 | CCNCCN(C)Cc1c[nH]nc1-c1ccc(F)cc1 [Compound 60] | 1010 to 3000 | < 100
30 | CCN(CCNC)Cc1c[nH]nc1-c1ccc(F)cc1 [Compound 9] | 101 to 1000 | 
31 | CNCCN(C)Cc1cnn(CC2CCOCC2)c1-c1ccc(F)cc1 [Compound 12] | > 10000 | 101 to 1000
32 | CN(CCN)Cc1c[nH]nc1-c1ccccc1F [Compound 72] | 3010 to 10000 | < 100
33 | CNCCN(C)Cc1c[nH]nc1-c1ccc(-c2ccccc2)cc1 [Compound 47] | < 100 | < 100
34 | CNCCN(C)Cc1c[nH]nc1-c1c(OC)cccc1OC [Compound 56] | > 10000 | 1010 to 3000
35 | CNCCN(C)Cc1cnn(C)c1-c1ccc(F)cc1 [Compound 10] | 101 to 1000 | 
36 | CN(CCN)Cc1n[nH]cc1-c1ccc(F)cc1 [Compound 69] | 1010 to 3000 | < 100
37 | CNCCN(C)Cc1c[nH]nc1-c1ccccc1O [Compound 35] | > 10000 | 101 to 1000
38 | CN(CCN)Cc1cnn(C2COC2)c1-c1ccc(F)cc1 [Compound 81] | 3010 to 10000 | 101 to 1000
39 | CN(CCN)Cc1c[nH]nc1-c1ccc(C(C)(C)C)cc1 [Compound 74] | 101 to 1000 | < 100
40 | CNCCN(C)Cc1c[nH]nc1-c1ccc(OC)cc1OC [Compound 55] | 3010 to 10000 | < 100
41 | CNCCN(C)Cc1c[nH]nc1-c1cccc(C(C)=O)c1 [Compound 44] | 101 to 1000 | < 100
42 | CN(CCN)Cc1c(-c2ccc(C#N)cc2)cnn1C [Compound 84] | > 10000 | 
43 | CN(CCN)Cc1cn(CC2COC2)nc1-c1ccc(F)cc1 [Compound 79] | > 10000 | 
44 | CNCCN(C)Cc1c[nH]nc1-c1ccccc1F [Compound 48] | 1010 to 3000 | < 100

Row | Compound | IC50 (Full-length human PRMT8) [nM] | IC50 (Full-length human PRMT6) [nM]
45 | CN(CCN)Cc1cn(C2COC2)nc1-c1ccc(F)cc1 [Compound 77] | 1010 to 3000 | 101 to 1000
46 | CN(CCN)Cc1cn(C)nc1-c1ccc(F)cc1 [Compound 3] | 101 to 1000 | < 100
47 | CNCCN(C)Cc1cn(CC2CCOCC2)nc1-c1ccc(F)cc1 [Compound 11] | > 10000 | 
48 | COc1ccc(-c2n[nH]cc2CN(C)CCN)c(OC)c1 [Compound 87] | 3010 to 10000 | 101 to 1000
49 | CC(C)N(CCN)Cc1c[nH]nc1-c1ccc(F)cc1 [Compound 75] | 1010 to 3000 | 1010 to 3000
50 | Cc1ccc(-c2n[nH]cc2CN(C)CCN)c(Cl)c1 [Compound 90] | 1010 to 3000 | < 100
51 | CNCCN(C)Cc1c[nH]nc1-c1ccc(C(=O)c2ccccc2)cc1 [Compound 45] | 101 to 1000 | < 100
52 | CN(CCN)Cc1c[nH]nc1-c1ccc(OC(F)(F)F)cc1 [Compound 93] | < 100 | < 100
53 | CNCCN(C)Cc1c[nH]nc1-c1ccc(CC#N)cc1 [Compound 34] | 101 to 1000 | < 100
54 | Cc1ccc(-c2n[nH]cc2CN(C)CCN)c(C)c1 [Compound 88] | 1010 to 3000 | < 100
55 | CNCCN(C)Cc1c[nH]nc1-c1ccc(F)c(F)c1 [Compound 51] | 101 to 1000 | < 100
56 | CNCCN(C)Cc1c[nH]nc1-c1cc(F)ccc1F [Compound 50] | 1010 to 3000 | < 100
57 | CN(CCN)Cc1c[nH]nc1-c1cccc(C#N)c1 [Compound 70] | 1010 to 3000 | < 100
58 | CCCN(CCN)Cc1c[nH]nc1-c1ccc(F)cc1 [Compound 63] | 3010 to 10000 | 1010 to 3000
59 | CNCCN(C)Cc1c[nH]nc1-c1cccc(N)c1 [Compound 32] | 1010 to 3000 | < 100
60 | CNCCN(C)Cc1c[nH]nc1-c1cccc(OC(F)(F)F)c1 [Compound 39] | 101 to 1000 | < 100
61 | CN(CCN)Cc1c[nH]nc1-c1ccc(OC(F)F)cc1 [Compound 94] | 101 to 1000 | < 100
62 | CN(CCN)Cc1c[nH]nc1-c1ccc(N2CCNCC2)cc1 [Compound 82] | 1010 to 3000 | 101 to 1000
63 | CN(CCN)Cc1c[nH]nc1-c1ccc(C(F)(F)F)cc1 [Compound 92] | 101 to 1000 | < 100
64 | CNCCN(C)Cc1c[nH]nc1-c1ccc(F)cc1 [Compound 2, N^1-((3-(4-fluorophenyl)-1H-pyrazol-4-yl)methyl)-N^1,N^2-dimethylethane-1,2-diamine] | 101 to 1000 | < 100
65 | CNCCN(C)Cc1c[nH]nc1-c1ccccc1-c1ccccc1 [Compound 46] | > 10000 | 3010 to 10000
66 | CN(CCN)Cc1cn[nH]c1-c1ccc(F)cc1 [Compound 1] |  | < 100

— patent US9346761B2, “Arginine methyltransferase inhibitors and uses thereof” (Epizyme, Inc., priority 2013, dated 2016)
